Data from patent US20100255070A1, “COMPOSITIONS AND METHODS FOR PREVENTING, MINIMIZING AND HEALING SKIN IRRITATION AND TRAUMA” (PRELIEF INC., priority 2007, published 2010).

Assay: Water solubility of the components of the preferred aqueous composition
Format: physicochemical
Settings: component of the preferred aqueous composition
Source text: The film-forming component is designed to be insoluble so that it will form a film on the skin.

Water Solubility: S
Structure (SMILES): OCC(O)CO [Glycerin]
